Results taken from PubChem BioAssay (NCI).
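Test compounds were applied to cells in 96-well plates for 48 hours at 5 doses. Here, GI50 denotes the concentration required for 50% inhibition of growth. The concentration for full growth arrest is given as TGI.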

Experiments:
Assay in all cases: growth of human tumour cells (NCI), 48 h
786-0 renal = system: 786-0 renal
A498 renal = system: A498 renal
A549 NSCLC = system: A549 NSCLC
ACHN renal = system: ACHN renal
BT-549 breast = system: BT-549 breast
CAKI-1 renal = system: CAKI-1 renal
CCRF-CEM leukemia = system: CCRF-CEM leukemia
COLO 205 colon = system: COLO 205 colon
DU-145 prostate = system: DU-145 prostate
EKVX NSCLC = system: EKVX NSCLC
HCC-2998 colon = system: HCC-2998 colon
HCT-116 colon = system: HCT-116 colon
HCT-15 colon = system: HCT-15 colon
HL-60(TB) leukemia = system: HL-60(TB) leukemia
HOP-62 NSCLC = system: HOP-62 NSCLC
HOP-92 NSCLC = system: HOP-92 NSCLC
HS 578T breast = system: HS 578T breast
HT29 colon = system: HT29 colon
IGROV1 ovarian = system: IGROV1 ovarian
K-562 leukemia = system: K-562 leukemia
LOX IMVI melanoma = system: LOX IMVI melanoma
M14 melanoma = system: M14 melanoma
MALME-3M melanoma = system: MALME-3M melanoma
MCF7 breast = system: MCF7 breast
MDA-MB-231 breast = system: MDA-MB-231 breast
MDA-MB-435 = system: MDA-MB-435
MOLT-4 leukemia = system: MOLT-4 leukemia
NCI-H226 lung = system: NCI-H226 lung

CC1OC(O[C@@H]2C(O)C(CO)OC(O[C@H]3COC(O[C@H]4CC[C@]5(C)[C@H]6CC[C@]78OC[C@@]9(CC[C@](C)(C=O)C[C@H]97)[C@H](O)C[C@@]8(C)[C@]6(C)CC[C@H]5C4(C)C)[C@@H](OC4OC(CO)[C@@H](O)[C@@H](O)[C@@H]4O)[C@@H]3O)[C@H]2OC2OC[C@@H](O)[C@@H](O)[C@@H]2O)[C@@H](O)[C@@H](O)[C@H]1O (stereo partly specified)
GI50 (786-0 renal): 2140 nM
TGI (786-0 renal): 3970 nM
GI50 (A498 renal): 2260 nM
TGI (A498 renal): 3980 nM
GI50 (A549 NSCLC): 2110 nM
TGI (A549 NSCLC): 4040 nM
GI50 (ACHN renal): 1500 nM
TGI (ACHN renal): 2920 nM
GI50 (BT-549 breast): 1770 nM
TGI (BT-549 breast): 3500 nM
GI50 (CAKI-1 renal): 1890 nM
TGI (CAKI-1 renal): 3480 nM
GI50 (CCRF-CEM leukemia): 1210 nM
TGI (CCRF-CEM leukemia): 4340 nM
GI50 (COLO 205 colon): 1620 nM
TGI (COLO 205 colon): 3160 nM
GI50 (DU-145 prostate): 1950 nM
TGI (DU-145 prostate): 3710 nM
GI50 (EKVX NSCLC): 1930 nM
TGI (EKVX NSCLC): 3840 nM
GI50 (HCC-2998 colon): 1950 nM
TGI (HCC-2998 colon): 3520 nM
GI50 (HCT-116 colon): 1480 nM
TGI (HCT-116 colon): 2980 nM
GI50 (HCT-15 colon): 2230 nM
TGI (HCT-15 colon): 5010 nM
GI50 (HL-60(TB) leukemia): 598 nM
TGI (HL-60(TB) leukemia): 2190 nM
GI50 (HOP-62 NSCLC): 1760 nM
TGI (HOP-62 NSCLC): 3470 nM
GI50 (HOP-92 NSCLC): 982 nM
TGI (HOP-92 NSCLC): 2620 nM
GI50 (HS 578T breast): 1920 nM
TGI (HS 578T breast): 4140 nM
GI50 (HT29 colon): 1990 nM
TGI (HT29 colon): 4020 nM
GI50 (IGROV1 ovarian): 1820 nM
TGI (IGROV1 ovarian): 3930 nM
GI50 (K-562 leukemia): 2200 nM
TGI (K-562 leukemia): 5680 nM
GI50 (LOX IMVI melanoma): 1740 nM
TGI (LOX IMVI melanoma): 3390 nM
GI50 (M14 melanoma): 1710 nM
TGI (M14 melanoma): 3400 nM
GI50 (MALME-3M melanoma): 1740 nM
TGI (MALME-3M melanoma): 3510 nM
GI50 (MCF7 breast): 1980 nM
TGI (MCF7 breast): 4110 nM
GI50 (MDA-MB-231 breast): 1760 nM
TGI (MDA-MB-231 breast): 3510 nM
GI50 (MDA-MB-435): 1850 nM
TGI (MDA-MB-435): 3570 nM
GI50 (MOLT-4 leukemia): 1130 nM
TGI (MOLT-4 leukemia): 3980 nM
GI50 (NCI-H226 lung): 1890 nM
TGI (NCI-H226 lung): 3980 nM
